The values below come from patent US6451735B1, “Glyphosate formulation” (priority 1998, dated 2002).

A short description of the data set: solubility in water and solution density of glyphosate salt. The data set is classed as physicochemical.

Where a name gives a salt, the structure may show the parent alone.

On to `O=C(O)CNCP(=O)(O)O` [potassium salt of glyphosate, N-phosphonomethylglycine], for which the density of solutions entry (aqueous solution) is listed as “about 1.45 g/cc”. The solubility in water result (water) is listed as “readily soluble”.
